Holding throughout (assay type): biochemical
The target of one assay is T1, hABHD6 (Homo sapiens, UniProt Q9BV23).
T1 construct: expressed in transfected cells; host or cells: HEK293 (transient)
T1 sequence (Q9BV23 1-337): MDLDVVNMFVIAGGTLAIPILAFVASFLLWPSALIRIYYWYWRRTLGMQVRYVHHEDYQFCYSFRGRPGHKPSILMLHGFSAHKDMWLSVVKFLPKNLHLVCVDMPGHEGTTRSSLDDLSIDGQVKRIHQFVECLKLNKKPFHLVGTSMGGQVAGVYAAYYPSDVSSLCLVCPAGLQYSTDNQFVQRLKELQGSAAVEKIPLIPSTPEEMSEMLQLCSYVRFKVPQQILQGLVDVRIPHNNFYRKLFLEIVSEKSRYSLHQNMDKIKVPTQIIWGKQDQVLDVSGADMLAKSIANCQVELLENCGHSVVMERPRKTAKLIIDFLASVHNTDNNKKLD
Put plainly: Fluorescent glycerol assay in hABHD6-HEK293 lysates. Particulars: 10 µM; NI = no inhibition at 10 µM; read-out: hABHD6 Remaining activity % control ± s.e.m (n=3).

Another assay concerns the target T2, hFAAH (Homo sapiens, UniProt O00519).
T2 construct: expressed in transfected cells; host or cells: COS-7
T2 sequence (O00519 1-579): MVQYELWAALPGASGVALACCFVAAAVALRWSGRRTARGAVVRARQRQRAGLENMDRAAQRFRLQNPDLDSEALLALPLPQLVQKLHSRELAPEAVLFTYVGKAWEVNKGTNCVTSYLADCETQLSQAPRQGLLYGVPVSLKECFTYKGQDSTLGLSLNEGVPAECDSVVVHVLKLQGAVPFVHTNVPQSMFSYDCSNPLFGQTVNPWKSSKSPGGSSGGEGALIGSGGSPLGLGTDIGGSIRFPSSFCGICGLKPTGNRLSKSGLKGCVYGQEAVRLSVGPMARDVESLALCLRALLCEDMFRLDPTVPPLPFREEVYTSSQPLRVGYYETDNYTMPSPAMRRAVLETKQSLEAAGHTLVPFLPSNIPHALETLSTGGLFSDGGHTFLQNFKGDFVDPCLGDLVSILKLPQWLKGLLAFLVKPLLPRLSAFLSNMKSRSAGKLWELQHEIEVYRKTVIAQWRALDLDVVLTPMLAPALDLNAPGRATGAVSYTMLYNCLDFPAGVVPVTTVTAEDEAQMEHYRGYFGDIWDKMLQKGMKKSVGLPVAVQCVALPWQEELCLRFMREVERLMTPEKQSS
Put plainly: FAAH activity, membranes of hFAAH overexpressing COS-7 cells, 3H-anandamide. As to conditions: read-out: hFAAH Remaining activity % control (mean (range)), n=2.

The target in a further assay is T3, ABHD12 (Mus musculus, UniProt Q99LR1).
T3 construct: the sole serine hydrolase targeted by the triterpenoids in native brain membrane proteome; from tissue; host or cells: mouse whole-brain membranes
T3 sequence (Q99LR1 1-398): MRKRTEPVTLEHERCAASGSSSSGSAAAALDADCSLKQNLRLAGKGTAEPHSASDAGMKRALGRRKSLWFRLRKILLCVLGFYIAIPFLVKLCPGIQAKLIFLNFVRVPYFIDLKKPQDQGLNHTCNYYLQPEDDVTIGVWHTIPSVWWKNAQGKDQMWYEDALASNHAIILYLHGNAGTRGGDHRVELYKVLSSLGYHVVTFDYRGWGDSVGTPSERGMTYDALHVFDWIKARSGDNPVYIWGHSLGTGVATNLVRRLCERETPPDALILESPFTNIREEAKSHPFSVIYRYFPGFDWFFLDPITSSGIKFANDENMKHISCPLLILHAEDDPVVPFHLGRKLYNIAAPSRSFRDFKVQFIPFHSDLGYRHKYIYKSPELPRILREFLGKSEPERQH
Put plainly: Competitive ABPP with TAMRA-FP in mouse brain membrane proteome. Particulars: mouse brain membranes, 1 h inhibitor, 1 h probe. As to the method: (§1) Competitive ABPP using HEK293 cell lysates and mouse brain membranes was conducted to visualize effects of selected triterpenoids on the binding of the active site serine-targeting fluorescent fluorophosphonate probe TAMRA-FP following outlines of previous protocols, [31]. Briefly, lysates (25 µg) of HEK293 cells with or without (Mock) hABHD12 overexpression or mouse wholebrain membranes (100 µg) were treated for 1 h with DMSO or the inhibitor, after which TAMRA-FP labelling was conducted for 5 min (lysates) or 1 hour (membranes) at RT (final probe concentration 2 µM). The reaction was quenched by addition of gel loading buffer (followed by boiling for 5 min in the case of lysates), after which 10 µg protein (10 µl) was loaded per lane and the proteins were resolved in 10% SDS-PAGE together with standards. TAMRA-FP labeling was visualized (λex 552; λem 575 nm) by a fluorescent reader (FLA-3000 laser fluorescence scanner, Fujifilm, Tokyo, Japan). The intensity of bands was quantified using ImageJ, a freely available image analysis software (http://rsbweb.nih.gov/ij/).
For ABPP experiments (Figure 6C) and cannabinoid receptor activity assays (Table S2), membranes prepared from brain tissue of 4-week-old male rodents were used. The animals were obtained from the National Laboratory Animal Centre, University of Eastern Finland. Approval for the harvesting of animal tissue was obtained from the local welfare officer of the University of Eastern Finland.

The test system of assay [1] is metabolic serine hydrolases. Put plainly: Competitive ABPP, other serine hydrolases of mouse brain membrane proteome. The procedure:
as §1
For ABPP experiments (Figure 6C) and cannabinoid receptor activity assays (Table S2), membranes prepared from brain tissue of 4-week-old male rodents were used. The animals were obtained from the National Laboratory Animal Centre, University of Eastern Finland. […]

Entries after “also recorded” stand apart in the source; their conditions may differ.

As a reminder, the remaining activity is the signal under treatment as a percentage of the control signal. Turning to `CC1(C)CC[C@]2(C(=O)O)CC[C@]3(C)C(=CC[C@@H]4[C@@]5(C)C[C@@H](O)[C@H](O)C(C)(C)[C@@H]5CC[C@]43C)[C@@H]2C1` [Compound 8, Maslinic acid, reference compound], the remaining activity at 10 µM at hABHD6 is over 100%; on hFAAH it was 83%. Further, the “TAMRA-FP probe labeling of ABHD12” value at ABHD12 was “selectively inhibited probe labeling of ABHD12; also recorded: dose-dependently inhibit TAMRA-FP labeling of ABHD12 already at 20 µM”. In assay [1], the “additional targets among the metabolic serine hydrolases” value is listed as “no additional targets are evident”.

These data come from PMC4045134, “Discovery of Triterpenoids as Reversible Inhibitors of α/β-hydrolase Domain Containing 12 (ABHD12)” (PLoS ONE, 2014).
